pEC50: −log10 of the molar value.

The target of the assay is Histamine H1 receptor (Cavia porcellus, UniProt P31389). Kind of assay: H1-Histamine receptor agonism on Guinea pig aorta was evaluated (SEM 0.03-0.18).
Chain of Histamine H1 receptor (P31389 whole entry): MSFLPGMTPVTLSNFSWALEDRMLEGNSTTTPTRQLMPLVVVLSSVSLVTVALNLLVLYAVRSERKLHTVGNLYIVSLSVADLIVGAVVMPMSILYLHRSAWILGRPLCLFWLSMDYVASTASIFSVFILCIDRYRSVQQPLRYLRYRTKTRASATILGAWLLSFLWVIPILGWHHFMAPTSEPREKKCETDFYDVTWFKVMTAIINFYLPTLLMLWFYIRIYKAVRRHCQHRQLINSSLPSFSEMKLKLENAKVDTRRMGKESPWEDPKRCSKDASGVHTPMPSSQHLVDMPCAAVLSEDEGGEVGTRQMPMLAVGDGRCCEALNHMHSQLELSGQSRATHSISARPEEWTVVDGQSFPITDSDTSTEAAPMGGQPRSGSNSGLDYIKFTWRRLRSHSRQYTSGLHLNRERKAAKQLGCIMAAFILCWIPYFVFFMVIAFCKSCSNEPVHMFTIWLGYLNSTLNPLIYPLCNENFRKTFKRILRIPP
The molecule `NCCc1c[nH]c(-c2ccsc2)n1` had a pEC50 of 5.21.
For `NCCc1c[nH]c(-c2cccc(I)c2)n1` the value was 5.59.
For `NCCc1c[nH]c(Cc2cccc(Cl)c2)n1` the value was 3.54; for `NCCc1nccs1` [2-(2-aminoethyl)thiazole], 5.17.
As for `NCCc1c[nH]c(Cc2ccsc2)n1`, the negative-log EC50 (pEC50) was 3.89.
Under `NCCc1c[nH]c(-c2csc(Br)c2)n1` stands 4.94.
For `NCCc1c[nH]c(-c2cccs2)n1` the value was 5.00; for `NCCc1c[nH]c(-c2ccc[nH]2)n1`, 4.99; for `NCCc1c[nH]c(-c2ccco2)n1`, 5.27.
For `NCCc1c[nH]c(Cc2ccccc2Cl)n1` the value was 3.24; for `NCCc1c[nH]c(Cc2cccs2)n1`, 3.83; for `NCCc1cnc(-c2cccc(C(F)(F)F)c2)[nH]1`, 5.89.
In the case of `NCCc1c[nH]c(-c2ccccc2)n1`, the pEC50 is 5.20.

Values taken from BindingDB's records for doi:10.1021/jm00008a007 (1995).
